According to ChEMBL document CHEMBL1201862, “PubChem BioAssay data set” (2004):
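Tested at 5 concentrations; 48 h exposure; 96-well plates; endpoints linearly interpolated, else capped at highest concentration. Here, GI50 denotes the concentration required for 50% inhibition of growth.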 Calls of active or inactive are those of the source. No stated cut-off is given here; in the data, active = GI50 up to about 1.1 µM and inactive = higher.

Legend:
Experiment in all cases: growth of human tumour cells (NCI), 48 h
KM12 = system: KM12
OVCAR-3 = system: OVCAR-3
MCF7 = system: MCF7
DU-145 = system: DU-145
RPMI-8226 = system: RPMI-8226
UACC-62 = system: UACC-62
Malme-3M = system: Malme-3M
UO-31 = system: UO-31
T47D = system: T47D
HL-60 = system: HL-60
CCRF-CEM = system: CCRF-CEM
SW-620 = system: SW-620
SK-OV-3 = system: SK-OV-3
BT-549 = system: BT-549
NCI-H522 = system: NCI-H522
786-0 = system: 786-0
OVCAR-4 = system: OVCAR-4
ACHN = system: ACHN
HT-29 = system: HT-29
SR = system: SR

SMILES	GI50 (KM12)	GI50 (OVCAR-3)	GI50 (MCF7)	GI50 (DU-145)	GI50 (RPMI-8226)	GI50 (UACC-62)	GI50 (Malme-3M)	GI50 (UO-31)	GI50 (T47D)	GI50 (HL-60)	GI50 (CCRF-CEM)	GI50 (SW-620)	GI50 (SK-OV-3)	GI50 (BT-549)	GI50 (NCI-H522)	GI50 (786-0)	GI50 (OVCAR-4)	GI50 (ACHN)	GI50 (HT-29)	GI50 (SR)
CC1CNC(c2cccc(OCc3ccc(COc4cccc(C5=NC(C)CN5)c4)cc3)c2)=N1 (centres undefined)	22.7 µM (inactive)	67.9 µM (inactive)	28.2 µM (inactive)	50.8 µM (inactive)	15.6 µM (inactive)	99.5 µM (inactive)	58.5 µM (inactive)	> 100 µM (inactive)	35.9 µM (inactive)	23.2 µM (inactive)	18.9 µM (inactive)	42.6 µM (inactive)	> 100 µM (inactive)	61.5 µM (inactive)	23 µM (inactive)	34.1 µM (inactive)	49.7 µM (inactive)	> 100 µM (inactive)	25.4 µM (inactive)	
CCOC(=O)c1cc2cc(C)cc(C(=O)c3ccc([N+](=O)[O-])cc3)c2[nH]1	> 100 µM (inactive)	> 100 µM (inactive)	> 100 µM (inactive)	> 100 µM (inactive)	> 100 µM (inactive)	> 100 µM (inactive)	> 100 µM (inactive)	> 100 µM (inactive)	> 100 µM (inactive)	> 100 µM (inactive)	> 10 µM (inactive)	> 100 µM (inactive)	> 100 µM (inactive)	> 100 µM (inactive)	> 100 µM (inactive)	86.7 µM (inactive)	> 100 µM (inactive)	> 100 µM (inactive)	> 100 µM (inactive)	
O=C1CC[C@@]2(O)[C@H]3Cc4ccc(-c5cccc(O)c5)c5c4[C@@]2(CCN3CC2CC2)[C@H]1O5	10 µM (inactive)	22 µM (inactive)	16.9 µM (inactive)	22.6 µM (inactive)	23.3 µM (inactive)	10.7 µM (inactive)		14.1 µM (inactive)		0.0553 µM (active)	< 0.01 µM (active)	> 35.1 µM (inactive)		21.6 µM (inactive)	16.1 µM (inactive)	18.2 µM (inactive)	23.3 µM (inactive)	25.4 µM (inactive)	11.3 µM (inactive)	26.3 µM (inactive)
CNCC(SC)c1ccc(O)c(O)c1 (centres undefined)	> 100 µM (inactive)	14.1 µM (inactive)	29.2 µM (inactive)	17.9 µM (inactive)	21.1 µM (inactive)	41.6 µM (inactive)	17.5 µM (inactive)	43 µM (inactive)	23.6 µM (inactive)	12.9 µM (inactive)	2.67 µM (inactive)	19.4 µM (inactive)	> 100 µM (inactive)	16.6 µM (inactive)	13.7 µM (inactive)	18.6 µM (inactive)	17 µM (inactive)	17.7 µM (inactive)	30.7 µM (inactive)	
c1ccc([B-]2(c3ccccc3)OCCc3cccc[n+]32)cc1	96.4 µM (inactive)	51.8 µM (inactive)		88.1 µM (inactive)	65.3 µM (inactive)	58.3 µM (inactive)	42.4 µM (inactive)	23.7 µM (inactive)	41 µM (inactive)	40.8 µM (inactive)	23.4 µM (inactive)	51.9 µM (inactive)	74.8 µM (inactive)	31.6 µM (inactive)	49.1 µM (inactive)	70.1 µM (inactive)	82.4 µM (inactive)	37.9 µM (inactive)	87.1 µM (inactive)	22.8 µM (inactive)
O=S1(=O)OCCOS(=O)(=O)C1S(=O)(=O)c1ccc2ccccc2c1	> 100 µM (inactive)	> 100 µM (inactive)	> 100 µM (inactive)	> 100 µM (inactive)	> 100 µM (inactive)		> 100 µM (inactive)	> 100 µM (inactive)		> 100 µM (inactive)	> 100 µM (inactive)	> 100 µM (inactive)		> 100 µM (inactive)		> 100 µM (inactive)	> 100 µM (inactive)	> 100 µM (inactive)	> 100 µM (inactive)	> 100 µM (inactive)
C/C(O[Si](C(C)C)(C(C)C)C(C)C)=C(\C)C(=O)N(C)c1ccccc1Cl	> 100 µM (inactive)	> 100 µM (inactive)		> 100 µM (inactive)	> 100 µM (inactive)		> 100 µM (inactive)	> 100 µM (inactive)	> 100 µM (inactive)			> 100 µM (inactive)		> 100 µM (inactive)	73.8 µM (inactive)	> 100 µM (inactive)	> 100 µM (inactive)	> 100 µM (inactive)	> 100 µM (inactive)	
CCCNC(=O)N1CC(CN2CCN(c3ccccc3)CC2)O/C1=N/C(=O)Nc1ccccc1 (centres undefined)	> 100 µM (inactive)		> 100 µM (inactive)	57.9 µM (inactive)	> 100 µM (inactive)	99.3 µM (inactive)	97.1 µM (inactive)	30.5 µM (inactive)	18.2 µM (inactive)	3.83 µM (inactive)		> 100 µM (inactive)	> 100 µM (inactive)	> 100 µM (inactive)	40.7 µM (inactive)	> 100 µM (inactive)	90.4 µM (inactive)	> 100 µM (inactive)	68.7 µM (inactive)	
CC(O)CN1c2ccccc2Sc2ccc(Cl)cc21 (centres undefined)	> 10 µM (inactive)	> 10 µM (inactive)	> 10 µM (inactive)	> 10 µM (inactive)	> 10 µM (inactive)	> 10 µM (inactive)	> 10 µM (inactive)	> 10 µM (inactive)	> 10 µM (inactive)	> 10 µM (inactive)	> 10 µM (inactive)	> 10 µM (inactive)	> 10 µM (inactive)	> 10 µM (inactive)	> 10 µM (inactive)	> 10 µM (inactive)	> 10 µM (inactive)	> 10 µM (inactive)	> 10 µM (inactive)	
O=C(CC1(O)C(=O)Nc2c(Cl)cc(Cl)cc21)c1ccc(Br)cc1Br (centres undefined)	12.9 µM (inactive)	18.7 µM (inactive)	13.2 µM (inactive)	16.3 µM (inactive)	2.75 µM (inactive)	12.9 µM (inactive)	11.5 µM (inactive)	16 µM (inactive)		1.04 µM (active)	0.474 µM (active)	3.3 µM (inactive)	21.5 µM (inactive)	10.5 µM (inactive)	2.89 µM (inactive)	11.3 µM (inactive)	12.2 µM (inactive)	14.1 µM (inactive)	17.7 µM (inactive)	1.56 µM (inactive)
Cc1cs/c(=N/c2ccccc2)n1CCC(O)(P(=O)(O)O)P(=O)(O)O	> 100 µM (inactive)	> 100 µM (inactive)	> 100 µM (inactive)	> 100 µM (inactive)		> 100 µM (inactive)	> 100 µM (inactive)	> 100 µM (inactive)					> 100 µM (inactive)	> 100 µM (inactive)	> 100 µM (inactive)	> 100 µM (inactive)		67.3 µM (inactive)	> 100 µM (inactive)	
CC(C)(C)CNCCCNc1ccc(Cl)cc1	36 µM (inactive)		11.9 µM (inactive)	> 100 µM (inactive)	21.2 µM (inactive)	17.2 µM (inactive)	22 µM (inactive)	61.2 µM (inactive)		< 0.01 µM (active)	35.8 µM (inactive)	> 100 µM (inactive)	> 100 µM (inactive)	70.6 µM (inactive)	24.1 µM (inactive)	82.2 µM (inactive)	60.8 µM (inactive)	> 100 µM (inactive)	20.2 µM (inactive)	5.41 µM (inactive)
c1ccc(-c2csc3c2-n2cccc2C3N2CCCC2)cc1 (centres undefined)	30.7 µM (inactive)	6.9 µM (inactive)	30.5 µM (inactive)	95.3 µM (inactive)	20.8 µM (inactive)		23.9 µM (inactive)	> 100 µM (inactive)		23.5 µM (inactive)	70.1 µM (inactive)	44.2 µM (inactive)		3.3 µM (inactive)	13.3 µM (inactive)	58.1 µM (inactive)	34.4 µM (inactive)	> 100 µM (inactive)	28.2 µM (inactive)	57.7 µM (inactive)
O=P(O)(O)c1ccccc1Oc1ccccc1	> 100 µM (inactive)	> 100 µM (inactive)	> 100 µM (inactive)	> 100 µM (inactive)	> 100 µM (inactive)	> 100 µM (inactive)		> 100 µM (inactive)		> 100 µM (inactive)	> 100 µM (inactive)	> 100 µM (inactive)	> 100 µM (inactive)	> 100 µM (inactive)	> 100 µM (inactive)	> 100 µM (inactive)		> 100 µM (inactive)		
Cc1ccc(N2CCC3(CC2)OCCO3)cc1	> 100 µM (inactive)	> 100 µM (inactive)		> 100 µM (inactive)	> 100 µM (inactive)	> 100 µM (inactive)	> 100 µM (inactive)	> 100 µM (inactive)	> 100 µM (inactive)	> 100 µM (inactive)	> 100 µM (inactive)	> 100 µM (inactive)	> 100 µM (inactive)	> 100 µM (inactive)	> 100 µM (inactive)	> 100 µM (inactive)	> 100 µM (inactive)	> 100 µM (inactive)	> 100 µM (inactive)	> 100 µM (inactive)
CCOC(=O)C1(N)CCc2[nH][nH]c(=O)c2C1 (centres undefined)	> 100 µM (inactive)	> 100 µM (inactive)	> 100 µM (inactive)		> 100 µM (inactive)	> 100 µM (inactive)	> 100 µM (inactive)	> 100 µM (inactive)	> 100 µM (inactive)	> 100 µM (inactive)	> 100 µM (inactive)	> 100 µM (inactive)	> 100 µM (inactive)	> 100 µM (inactive)	> 100 µM (inactive)	> 100 µM (inactive)	> 100 µM (inactive)	> 100 µM (inactive)	> 100 µM (inactive)	> 100 µM (inactive)
